The record followed here is PMC3951324, “Side Chain Hydrophobicity Modulates Therapeutic Activity and Membrane Selectivity of Antimicrobial Peptide Mastoparan-X” (PLoS ONE, 2014).

≈ marks a conversion by molar mass, not a printed value. Square brackets hold non-standard residues; d marks the D form. Ends that are not written are not given here. Peptide text beside a SMILES is read from it. * marks the point of attachment. ξ: configuration not given here. ξGly(octyl) = CCCCCCCCC(N)C(=O)O; Octanoyl = CCCCCCCC(=O)*; Propionyl = CCC(=O)*

The subject of series [1] is human red blood cells (RBCs). Kind of series: Haemolysis assay. Type of series: cell-based. The following applies: for % haemolysis: human RBCs; for H5, concentration at which 5% haemolysis has been obtained: purified human erythrocytes, assay as in Etzerodt et al. [14]. The text has this:
All Fmoc (9H-fluoren-9-yl-methyloxycarbonyl) L-amino acids and HATU (1-[Bis(dimethylamino)methylene]-1H-1,2,3-triazolo[4,5-b]pyridinium 3-oxid hexafluorophosphate, N-[(Dimethylamino)-1H-1,2,3-triazolo-[4,5-b]pyridin-1-ylmethylene]-N-methylmethanaminium hexafluorophosphate N-oxide) were purchased from GLS China (GL Biochem, Shanghai, China). Fmoc-2-amino-decanoic acid was obtained from Watanabe Chemical Industries, Ltd (Hiroshima, Japan). Lys and Trp were side-chain-protected as tert-butoxycarbonyl, Asn was sidechain protected with trityl. Tentagel resin was purchased from NovaBiochem (Merck, Darmstadt, Germany). TFA (trifluoroacetic acid), TIS (triisopropylsilane), HEPES (N-(2-hydroxyethyl)piperazine-N-(2-ethanesulfonic acid)), 2,4,6-collidine and pyrene were purchased from Sigma-Aldrich (Brøndby, Denmark). Pyridine, sodium hydroxide pellets and sodium chloride was purchased from J.T. Baker Chemicals (Phillipsburg, NJ, USA). Filter supports and Hamilton extrusion syringes, POPG (1-palmitoyl-2-oleoyl-sn-glycero-3-[phospho-rac-(1-glycerol)] sodium salt), and POPC (1-palmitoyl-2-oleoyl-sn-glycero-3-phosphocholine) were purchased from Avanti Polar Lipids (Alabaster, AL). All compounds were used without further purification. Membrane filters for extrusion (100 nm pore size, polycarbonate) were purchased from Whatman (Maidstone, UK). Cuvettes (4×10 mm, quartz, Suprasil) were purchased from Hellma (Müllheim, Germany). Purified human erythrocytes for the haemolysis studies were provided by Bioneer (Hørsholm, Denmark), and were stored at 4°C for a maximum of three days before use.
The assay was conducted as described in Etzerodt et al..

The test system of series [2] is Escherichia coli, strain INV-α. Nature of the series: Determination of minimal inhibitory concentration (MIC). Type of series: cell-based. The following applies: LB medium, 37°C, 20 h, shaking, peptide 0.05–50 µM, absorbance 570 nm, triplicates. On the procedure:
(§1) A stock dilution series with ten points, ranging from 1 µM to 1 mM, was prepared in sterile PBS from freshly dissolved peptides. The dilution series was dispensed in triplicates in 96-deepwell microtiter plates (VWR Denmark, Herlev, Denmark), with 15 µl in each well. Multidispensing with electronic pipettes (Biohit, Tåstrup, Denmark) was used throughout. Lactococcus lactis, strain MG1363 (ATCC, LGC Standards AB, Boras, Sweden) and Escherichia coli, strain INV-α (Invitrogen, Nærum, Denmark) were grown in M9 (Sigma Aldrich, Brøndby, Denmark) and LB medium (Difco, BD Biosciences, Brøndby Denmark), respectively. A single colony was grown overnight at 30°C and 37°C for L.lactis and E.coli respectively. The next day, a fresh culture was started with a twenty-fold dilution of the cells and grown for exactly 60 min (optical density was approximately 0.4 at 570 nm). The cell culture was diluted (300 fold for L.lactis and 1000 fold for E.coli) before adding 150 µl to microtiter plates already containing 15 µl peptide solution and 135 µl fresh medium. […] Plates with L.lactis were sealed with lid and parafilm, and plates with E.coli were sealed with a gas-permeable tape (VWR Denmark, Herlev, Denmark). The plates were incubated at the respective temperatures for 20 hours with shaking (150 rpm). For each measurement, 100 µl of the cell culture was transferred to clear, flat-bottomed microtiter plates, and the absorbance at 570 nm was determined using a Victor3 plate reader (Perkin Elmer, Skovlunde, Denmark). The measurement was conducted in triplicates.

Series [3] deals with Lactococcus lactis, strain MG1363. The series is described as above. In kind it is cell-based. Conditions: strain MG1363, M9 medium, 30°C, 20 h, shaking; peptide 0.05–50 µM; absorbance 570 nm; triplicates. Here is the method:
as §1

A short description of series [4]: Peptide partitioning by ITC. In kind it is physicochemical. The following applies: 37°C; for partition coefficient of insertion Kins/10^5: 10 mM POPC∶POPG (3∶1) LUVs into 20 µM peptide, pH 7.4, Gouy-Chapman-Stern fit, value is Kins divided by 10^5, triplicates; for effective partition coefficient Keff/10^8: derived from Kins, zeff and the surface potential of fully charged membrane (25 mol% negative charge), value is Keff divided by 10^8. On the procedure:
Lipid stock solutions of POPC and POPG were prepared in chloroform∶methanol (9∶1). Mixtures of POPC∶POPG (3∶1) were prepared and the organic solvent was evaporated under a gentle stream of nitrogen. The lipid films were kept in vacuum (P<0.1 Pa) overnight in order to remove the residual solvent. Buffer containing 10 mM HEPES and 100 mM sodium chloride (pH 7.4) was added to the lipid films, and they were hydrated for 60 min followed by extrusion through 100 nm using an Avanti mini-extruder. Dynamic Light Scattering (DLS, Brookhaven Instrument Corporation, ZetaPALS) was used for measuring the liposome size distribution. The effective lipid concentration was determined by inductively coupled plasma atomic emission spectroscopy (ICP-AES Vista AX, Varian).
The partitioning of AMPs onto lipid membranes was investigated by isothermal titration calorimetry (ITC, iTC200, Microcal, 204 µL cell volume). For the peptide analogues MPX, Ala1 and Ala14, 10 mM […] (3∶1) LUVs were injected (19×2 µL) into a 20 µM peptide solution at T = 37°C. The speed of the stirrer was 1000 rpms, and all titration were initiated with a 0.5 µL pre-injection. The heat-traces were integrated using custom made software, and the heat of partitioning was analysed using a partitioning isotherm based on Gouy-Chapman-Stern description of the electrostatic interaction of the peptide and membrane, [32]. The effective charge of the peptide (zeff), the partitioning coefficient of insertion (Kins), the molar enthalpy of partitioning ( [drawing 4] ), and the heat of dilution (qdil) were extracted as fitting parameters. The effective partitioning coefficient was derived as [drawing 5] where F is Faradays constant, [drawing 6] is the electrostatic potential evaluated at the interface of a fully charged membrane (25mol% negative charge before insertion of the first peptide), and R is the ideal gas constant. The instrument was electrically calibrated, and blank titration of LUVs into buffer was performed to ensure that heat of dilution could be modelled as a constant in the data analysis. Each titration was conducted in triplicates.

Consider `CCCCCCCCC(NC(=O)[C@H](C)NC(=O)[C@@H](NC(=O)CNC(=O)[C@H](CCCCN)NC(=O)[C@H](Cc1c[nH]c2ccccc12)NC(=O)[C@H](CC(N)=O)NC(=O)[C@@H](N)[C@@H](C)CC)[C@@H](C)CC)C(=O)N[C@@H](CCSC)C(=O)N[C@@H](C)C(=O)N[C@@H](CCCCN)C(=O)N[C@@H](CCCCN)C(=O)N[C@@H](CC(C)C)C(=O)N[C@@H](CC(C)C)C(N)=O` (stereo partly shown) [Adec8] (H-INWKGIA[ξGly(octyl)]MAKKLL-NH2), for which the “% haemolysis” value in series [1] (50 µM peptide) is listed as “full haemolysis”. Further, in series [1], the “H5, concentration at which 5% haemolysis has been obtained” value came to 1 ± 1 µM. Moreover, in series [2], the “MIC (E. coli)” value was found to be 4.2 ± 0.8 µM (≈ 6.95 µg/mL). Moreover, the “MIC (L. lactis)” value in series [3] stood at 4.2 ± 0.8 µM (≈ 6.95 µg/mL).

`CCCCCCCC(=O)N[C@H](C(=O)N[C@@H](CC(N)=O)C(=O)N[C@@H](Cc1c[nH]c2ccccc12)C(=O)N[C@@H](CCCCN)C(=O)NCC(=O)N[C@H](C(=O)N[C@@H](C)C(=O)N[C@@H](C)C(=O)N[C@@H](CCSC)C(=O)N[C@@H](C)C(=O)N[C@@H](CCCCN)C(=O)N[C@@H](CCCCN)C(=O)N[C@@H](CC(C)C)C(=O)N[C@@H](CC(C)C)C(N)=O)[C@@H](C)CC)[C@@H](C)CC` [OAMPX] (Octanoyl-INWKGIAAMAKKLL-NH2): in series [1] (50 µM peptide), the “% haemolysis” value was “full haemolysis”. Besides, the “H5, concentration at which 5% haemolysis has been obtained” value in series [1] is 1.1 ± 0.3 µM. The “MIC (E. coli)” value in series [2] was found to be 5 ± 1 µM (≈ 8.41 µg/mL). Besides, in series [3], the “MIC (L. lactis)” value was 3.3 ± 0.8 µM (≈ 5.55 µg/mL).

As for ANWKGIAAMAKKLL-NH2 [Ala1], the “% haemolysis” value in series [1] (50 µM peptide) is roughly 1.5%; in series [1] (200 µM peptide), roughly 4%. For the same compound, the “H5, concentration at which 5% haemolysis has been obtained” value in series [1] was found to be 230 ± 10 µM. Further, in series [4], the “partition coefficient of insertion Kins/10^5” value came to 1.1±0.1. For the same compound, the “effective partition coefficient Keff/10^8” value in series [4] is listed as 25±7. The “MIC (E. coli)” value in series [2] was determined as 33 ± 8 µM. Moreover, in series [3], the “MIC (L. lactis)” value stood at 18 ± 7 µM.

Turning to `CCCCCCCCC(N)C(=O)N[C@@H](CC(N)=O)C(=O)N[C@@H](Cc1c[nH]c2ccccc12)C(=O)N[C@@H](CCCCN)C(=O)NCC(=O)N[C@H](C(=O)N[C@@H](C)C(=O)N[C@@H](C)C(=O)N[C@@H](CCSC)C(=O)N[C@@H](C)C(=O)N[C@@H](CCCCN)C(=O)N[C@@H](CCCCN)C(=O)N[C@@H](CC(C)C)C(=O)N[C@@H](CC(C)C)C(N)=O)[C@@H](C)CC` (stereo partly shown) [Adec1] (H-[ξGly(octyl)]NWKGIAAMAKKLL-NH2), the “% haemolysis” value in series [1] (50 µM peptide) is reported as “full haemolysis”. Also, the “H5, concentration at which 5% haemolysis has been obtained” value in series [1] came out at 0.7 ± 0.1 µM. Besides, the “MIC (E. coli)” value in series [2] was determined as 3.3 ± 0.8 µM (≈ 5.32 µg/mL). The “MIC (L. lactis)” value in series [3] was 1.7 ± 0.4 µM (≈ 2.74 µg/mL).

Regarding INWKGIAAMAKKLA-NH2 [Ala14], the figures for the “% haemolysis” value in series [1] (50 µM peptide) and in series [1] (200 µM peptide) were roughly 1.5% and roughly 4%, respectively. In addition, the “H5, concentration at which 5% haemolysis has been obtained” value in series [1] worked out at 220 ± 20 µM. Moreover, the “partition coefficient of insertion Kins/10^5” value in series [4] was 1.4±0.3. Further, the “effective partition coefficient Keff/10^8” value in series [4] was determined as 1.1±0.2. Also, the “MIC (E. coli)” value in series [2] turned out to be 33 ± 8 µM. For the same compound, in series [3], the “MIC (L. lactis)” value stood at 21 ± 4 µM.

Consider INWKGIALMAKKLL-NH2 [Leu8], for which the “H5, concentration at which 5% haemolysis has been obtained” value in series [1] was 14 ± 2 µM. The “MIC (E. coli)” value in series [2] was determined as 7 ± 3 µM. The “MIC (L. lactis)” value in series [3] is 2.5 ± 1.3 µM.

In the case of `CCC(=O)N[C@H](C(=O)N[C@@H](CC(N)=O)C(=O)N[C@@H](Cc1c[nH]c2ccccc12)C(=O)N[C@@H](CCCCN)C(=O)NCC(=O)N[C@H](C(=O)N[C@@H](C)C(=O)N[C@@H](C)C(=O)N[C@@H](CCSC)C(=O)N[C@@H](C)C(=O)N[C@@H](CCCCN)C(=O)N[C@@H](CCCCN)C(=O)N[C@@H](CC(C)C)C(=O)N[C@@H](CC(C)C)C(N)=O)[C@@H](C)CC)[C@@H](C)CC` [PAMPX] (Propionyl-INWKGIAAMAKKLL-NH2), the “% haemolysis” value in series [1] (50 µM peptide) was determined as 10%. The “H5, concentration at which 5% haemolysis has been obtained” value in series [1] worked out at 25 ± 1 µM. The “MIC (E. coli)” value in series [2] came out at 21 ± 4 µM (≈ 33.9 µg/mL). Besides, in series [3], the “MIC (L. lactis)” value was found to be 3.3 ± 0.8 µM (≈ 5.32 µg/mL).

Regarding `CCCCCCCCC(NC(=O)[C@H](CC(C)C)NC(=O)[C@H](CCCCN)NC(=O)[C@H](CCCCN)NC(=O)[C@H](C)NC(=O)[C@H](CCSC)NC(=O)[C@H](C)NC(=O)[C@H](C)NC(=O)[C@@H](NC(=O)CNC(=O)[C@H](CCCCN)NC(=O)[C@H](Cc1c[nH]c2ccccc12)NC(=O)[C@H](CC(N)=O)NC(=O)[C@@H](N)[C@@H](C)CC)[C@@H](C)CC)C(N)=O` (stereo partly shown) [Adec14] (H-INWKGIAAMAKKL[ξGly(octyl)]-NH2), in series [1] (50 µM peptide), the “% haemolysis” value is given as “full haemolysis”. Moreover, the “H5, concentration at which 5% haemolysis has been obtained” value in series [1] worked out at 0.8 ± 0.2 µM. Besides, the “MIC (E. coli)” value in series [2] turned out to be 3.3 ± 0.8 µM (≈ 5.32 µg/mL). In series [3], the “MIC (L. lactis)” value came out at 1.7 ± 0.4 µM (≈ 2.74 µg/mL).
